From ChEMBL document CHEMBL1133420, “Parallel synthesis of a series of subtype-selective NMDA receptor antagonists” (Bioorg Med Chem Lett, 2000) come the findings set out here.

Molecules are shown by their SMILES.

What all share (assay type): functional, cell-based, Oocyte
The target in assay [1] is Glutamate receptor ionotropic, NMDA 2B (Homo sapiens, UniProt Q05586+Q13224). Description: Antagonistic activity against NR1A/2B receptor in frog oocytes.
Assay [2] concerns the target Glutamate receptor ionotropic, NMDA 2A (Homo sapiens, UniProt Q05586+Q12879). Nature of the assay: Antagonistic activity against NR1A/2A receptors in frog oocytes.
Assay [3] concerns the target Glutamate receptor ionotropic, NMDA 2C (Homo sapiens, UniProt Q05586+Q14957). Description: Antagonistic activity against NR1A/2C receptor in frog oocytes.

Chain of Glutamate receptor ionotropic, NMDA 2A (Q12879 whole entry, one chain of several): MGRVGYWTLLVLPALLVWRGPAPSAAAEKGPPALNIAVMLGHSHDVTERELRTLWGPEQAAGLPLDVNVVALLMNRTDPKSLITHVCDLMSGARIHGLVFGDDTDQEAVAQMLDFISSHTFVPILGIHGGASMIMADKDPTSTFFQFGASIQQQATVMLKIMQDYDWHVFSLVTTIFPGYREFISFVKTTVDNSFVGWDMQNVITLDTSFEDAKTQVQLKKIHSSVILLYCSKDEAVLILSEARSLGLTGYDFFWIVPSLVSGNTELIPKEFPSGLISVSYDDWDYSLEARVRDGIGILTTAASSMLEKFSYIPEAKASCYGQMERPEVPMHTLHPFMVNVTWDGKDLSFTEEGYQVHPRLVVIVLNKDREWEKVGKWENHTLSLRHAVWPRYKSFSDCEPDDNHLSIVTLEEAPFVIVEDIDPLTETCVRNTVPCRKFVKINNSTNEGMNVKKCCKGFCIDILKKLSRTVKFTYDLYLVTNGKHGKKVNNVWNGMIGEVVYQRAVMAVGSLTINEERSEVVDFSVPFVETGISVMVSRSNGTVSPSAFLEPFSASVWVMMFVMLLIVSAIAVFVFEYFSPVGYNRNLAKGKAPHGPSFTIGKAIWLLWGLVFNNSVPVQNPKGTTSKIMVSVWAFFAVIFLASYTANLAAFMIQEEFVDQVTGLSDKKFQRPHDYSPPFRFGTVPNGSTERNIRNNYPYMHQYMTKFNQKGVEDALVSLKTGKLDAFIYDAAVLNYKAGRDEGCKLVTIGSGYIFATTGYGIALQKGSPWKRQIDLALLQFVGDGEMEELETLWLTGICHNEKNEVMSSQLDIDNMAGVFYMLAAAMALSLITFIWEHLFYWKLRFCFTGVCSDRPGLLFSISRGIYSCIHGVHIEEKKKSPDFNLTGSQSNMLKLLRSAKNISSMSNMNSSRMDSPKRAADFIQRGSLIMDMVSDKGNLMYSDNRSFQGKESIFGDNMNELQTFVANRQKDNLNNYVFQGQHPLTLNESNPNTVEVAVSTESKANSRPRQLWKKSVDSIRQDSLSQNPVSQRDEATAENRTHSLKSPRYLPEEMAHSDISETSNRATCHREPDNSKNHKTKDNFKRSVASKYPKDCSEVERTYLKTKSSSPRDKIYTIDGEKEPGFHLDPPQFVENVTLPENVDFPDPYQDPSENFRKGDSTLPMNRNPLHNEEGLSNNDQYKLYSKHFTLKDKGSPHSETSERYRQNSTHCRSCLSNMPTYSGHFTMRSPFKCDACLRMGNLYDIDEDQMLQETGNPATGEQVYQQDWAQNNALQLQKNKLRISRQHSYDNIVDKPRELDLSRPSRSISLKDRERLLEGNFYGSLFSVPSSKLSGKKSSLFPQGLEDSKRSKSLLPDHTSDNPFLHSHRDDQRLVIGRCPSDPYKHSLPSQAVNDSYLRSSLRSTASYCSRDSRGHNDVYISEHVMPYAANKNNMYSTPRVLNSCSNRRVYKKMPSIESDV
Chain of Glutamate receptor ionotropic, NMDA 2C (Q14957 whole entry, one chain of several): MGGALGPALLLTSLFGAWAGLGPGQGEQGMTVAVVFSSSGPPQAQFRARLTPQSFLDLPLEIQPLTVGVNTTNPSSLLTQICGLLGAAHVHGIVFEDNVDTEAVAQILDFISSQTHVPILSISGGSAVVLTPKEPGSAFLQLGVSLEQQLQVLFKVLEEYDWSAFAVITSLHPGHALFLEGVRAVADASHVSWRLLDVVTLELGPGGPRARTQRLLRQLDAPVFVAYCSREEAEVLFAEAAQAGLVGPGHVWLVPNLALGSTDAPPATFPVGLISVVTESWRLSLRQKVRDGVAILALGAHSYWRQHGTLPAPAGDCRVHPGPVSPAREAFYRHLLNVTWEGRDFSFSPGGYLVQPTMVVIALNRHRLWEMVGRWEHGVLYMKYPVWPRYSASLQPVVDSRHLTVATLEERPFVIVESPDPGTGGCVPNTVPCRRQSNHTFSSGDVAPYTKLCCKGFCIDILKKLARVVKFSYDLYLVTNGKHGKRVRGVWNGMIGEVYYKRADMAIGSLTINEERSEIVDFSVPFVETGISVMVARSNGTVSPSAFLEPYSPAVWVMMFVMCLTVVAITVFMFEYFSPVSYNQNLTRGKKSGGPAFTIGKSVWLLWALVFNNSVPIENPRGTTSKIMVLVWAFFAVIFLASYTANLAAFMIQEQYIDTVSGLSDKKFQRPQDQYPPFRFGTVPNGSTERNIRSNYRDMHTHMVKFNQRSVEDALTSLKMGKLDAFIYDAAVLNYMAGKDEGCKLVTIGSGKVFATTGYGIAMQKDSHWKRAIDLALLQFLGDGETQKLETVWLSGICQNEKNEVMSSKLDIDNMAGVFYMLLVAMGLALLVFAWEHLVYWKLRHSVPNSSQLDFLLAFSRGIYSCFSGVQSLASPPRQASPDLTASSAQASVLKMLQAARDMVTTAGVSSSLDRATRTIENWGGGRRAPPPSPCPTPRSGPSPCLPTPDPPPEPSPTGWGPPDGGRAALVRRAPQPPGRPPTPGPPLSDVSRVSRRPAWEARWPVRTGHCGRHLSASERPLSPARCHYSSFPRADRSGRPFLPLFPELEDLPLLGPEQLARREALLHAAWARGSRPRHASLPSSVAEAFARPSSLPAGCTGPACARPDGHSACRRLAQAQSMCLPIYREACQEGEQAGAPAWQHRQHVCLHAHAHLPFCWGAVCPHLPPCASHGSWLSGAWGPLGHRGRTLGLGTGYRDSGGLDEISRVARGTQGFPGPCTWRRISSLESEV
Chain of Glutamate receptor ionotropic, NMDA 2B (Q13224 whole entry, one chain of several): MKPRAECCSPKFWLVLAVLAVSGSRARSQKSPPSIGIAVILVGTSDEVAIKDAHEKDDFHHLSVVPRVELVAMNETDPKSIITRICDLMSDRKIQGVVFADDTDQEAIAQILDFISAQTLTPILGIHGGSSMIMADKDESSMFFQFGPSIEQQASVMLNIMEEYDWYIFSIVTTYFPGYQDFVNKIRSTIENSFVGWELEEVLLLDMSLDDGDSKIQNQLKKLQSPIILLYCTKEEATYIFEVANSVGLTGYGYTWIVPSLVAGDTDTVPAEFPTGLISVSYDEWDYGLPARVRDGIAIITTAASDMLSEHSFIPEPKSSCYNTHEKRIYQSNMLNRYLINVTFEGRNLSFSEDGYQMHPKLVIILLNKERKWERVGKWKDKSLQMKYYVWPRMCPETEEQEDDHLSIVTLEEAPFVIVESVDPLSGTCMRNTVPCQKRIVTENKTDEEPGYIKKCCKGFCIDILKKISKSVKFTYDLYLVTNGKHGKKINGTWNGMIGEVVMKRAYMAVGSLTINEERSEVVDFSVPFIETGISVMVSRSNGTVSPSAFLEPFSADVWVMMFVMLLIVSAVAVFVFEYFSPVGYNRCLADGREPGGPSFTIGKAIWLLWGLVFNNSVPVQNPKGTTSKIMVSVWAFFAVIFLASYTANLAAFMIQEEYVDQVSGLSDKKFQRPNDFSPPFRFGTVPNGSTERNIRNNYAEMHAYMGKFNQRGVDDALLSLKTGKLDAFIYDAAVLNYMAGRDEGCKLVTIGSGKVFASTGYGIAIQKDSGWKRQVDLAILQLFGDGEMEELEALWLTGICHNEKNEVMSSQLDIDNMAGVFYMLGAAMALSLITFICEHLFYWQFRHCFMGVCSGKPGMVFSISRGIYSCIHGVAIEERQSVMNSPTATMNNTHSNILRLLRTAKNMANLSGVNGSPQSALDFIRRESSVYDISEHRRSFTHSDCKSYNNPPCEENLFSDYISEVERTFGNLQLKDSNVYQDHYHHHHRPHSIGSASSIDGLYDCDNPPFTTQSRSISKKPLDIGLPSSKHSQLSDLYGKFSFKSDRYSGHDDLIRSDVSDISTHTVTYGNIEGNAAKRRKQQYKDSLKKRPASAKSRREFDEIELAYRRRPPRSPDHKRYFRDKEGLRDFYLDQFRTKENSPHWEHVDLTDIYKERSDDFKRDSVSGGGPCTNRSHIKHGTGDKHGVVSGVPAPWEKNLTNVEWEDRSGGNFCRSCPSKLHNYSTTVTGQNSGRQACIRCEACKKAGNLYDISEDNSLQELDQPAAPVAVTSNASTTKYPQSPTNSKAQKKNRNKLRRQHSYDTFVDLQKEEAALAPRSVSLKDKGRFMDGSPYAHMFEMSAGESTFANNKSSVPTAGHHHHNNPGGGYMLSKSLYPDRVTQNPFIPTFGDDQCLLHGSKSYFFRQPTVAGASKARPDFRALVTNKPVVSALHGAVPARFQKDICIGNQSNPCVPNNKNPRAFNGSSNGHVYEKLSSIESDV

Regarding `Cc1n[nH]c(SCCN2CCC(Cc3ccccc3)CC2)n1`, the IC50 in assay [1] was 0.15 µM; in assay [2] it was greater than 100 µM; in assay [3], greater than 100 µM.

Regarding `O=[N+]([O-])c1ccc2nc(SCCCN3CCC(Cc4ccccc4)CC3)[nH]c2c1`, the figures for the IC50 in assay [1], in assay [2] and in assay [3] were 0.91 µM, 61 µM and greater than 100 µM, respectively.

Take `Cc1nnc(SCCCN2CCC(Cc3ccccc3)CC2)s1`: the IC50 in assay [1] is 6.4 µM; in assay [2] it was greater than 100 µM; in assay [3], greater than 100 µM.

As to `c1ccc(CC2CCN(CCCSc3nc4ccccc4[nH]3)CC2)cc1`, the IC50 in assay [1] was 1 µM; in assay [2], 64 µM; in assay [3], 51 µM.

Consider `c1ccc(CC2CCN(CCSc3ncc[nH]3)CC2)cc1`, for which the concentration for half-maximal inhibition (IC50) was 0.07 µM in assay [1], greater than 100 µM in assay [2] and greater than 100 µM in assay [3].

As for `c1ccc(CC2CCN(CCSc3nc4ccccc4[nH]3)CC2)cc1`, the IC50 in assay [1] is 0.38 µM; in assay [3] it was greater than 100 µM.

In the case of `c1ccc(CC2CCN(CCCSc3ccccc3)CC2)cc1`, the IC50 was 4.3 µM in assay [1] and greater than 100 µM in assay [3].

As for `Nc1nnc(SCCCN2CCC(Cc3ccccc3)CC2)s1`, the IC50 in assay [1] is 0.56 µM; in assay [2], 73 µM; in assay [3] it was greater than 100 µM.

Regarding `O=[N+]([O-])c1ccc2[nH]c(SCCN3CCC(Cc4ccccc4)CC3)nc2c1`, the IC50 is 7.4 µM in assay [1], greater than 100 µM in assay [2] and greater than 100 µM in assay [3].

As to `c1ccc(CC2CCN(CCCSc3nc4ncccc4[nH]3)CC2)cc1`, the IC50 in assay [1] was 1.6 µM; in assay [2], greater than 100 µM; in assay [3] it was greater than 100 µM.

Take `c1ccc(CC2CCN(CCSc3nc4ncccc4[nH]3)CC2)cc1`: the IC50 in assay [1] is 0.24 µM; in assay [2], greater than 100 µM; in assay [3] it was greater than 100 µM.

As to `Oc1ccc(SCCN2CCC(Cc3ccccc3)CC2)cc1`, the IC50 in assay [1] is 0.1 µM; in assay [2] it was 35 µM; in assay [3], greater than 100 µM.

Take `c1ccc(CC2CCN(CCCSc3ncc[nH]3)CC2)cc1`: the IC50 in assay [1] was 0.61 µM; in assay [2], 77 µM; in assay [3], greater than 100 µM.

Take `Nc1n[nH]c(SCCCN2CCC(Cc3ccccc3)CC2)n1`: the half-maximal inhibitory concentration (IC50) in assay [1] was 0.63 µM; in assay [2], 77 µM; in assay [3], greater than 100 µM.

`c1ccc(CC2CCN(CCCSc3nnc[nH]3)CC2)cc1`: the IC50 in assay [1] was 0.63 µM; in assay [2], 51 µM; in assay [3] it was greater than 100 µM.

For the molecule `c1ccc(CC2CCN(CCSc3ccccc3)CC2)cc1`, the IC50 was 0.93 µM in assay [1], greater than 100 µM in assay [2] and greater than 100 µM in assay [3].

Turning to `Nc1nnc(SCCN2CCC(Cc3ccccc3)CC2)[nH]1`, the IC50 in assay [1] is 0.035 µM; in assay [2], greater than 100 µM; in assay [3], greater than 100 µM.

On to `c1ccc(CC2CCN(CCSc3nc[nH]n3)CC2)cc1`, for which the values for the IC50 in assay [1], in assay [2] and in assay [3] were 0.13 µM, greater than 100 µM and greater than 100 µM, respectively.

For `Nc1nnc(SCCN2CCC(Cc3ccccc3)CC2)s1`, the IC50 in assay [1] is 0.21 µM; in assay [2], greater than 100 µM; in assay [3], greater than 100 µM.

With `Cc1n[nH]c(SCCCN2CCC(Cc3ccccc3)CC2)n1`, the IC50 in assay [1] was 1 µM; in assay [2], greater than 100 µM; in assay [3], greater than 100 µM.

For `Cc1nnc(SCCN2CCC(Cc3ccccc3)CC2)s1`, the concentration for half-maximal inhibition (IC50) in assay [1] is 4.8 µM; in assay [2] it was greater than 100 µM; in assay [3], greater than 100 µM.

On to `Oc1ccc(C#CCCN2CCC(Cc3ccccc3)CC2)cc1`, for which the IC50 was 0.1 µM in assay [1], greater than 100 µM in assay [2] and greater than 100 µM in assay [3].
